Data on 1 compound can be found in US12338229B2, “Small molecule stimulators of steroid receptor coactivator-3 and methods of their use as cardioprotective and/or vascular regenerative agents” (BAYLOR COLLEGE OF MEDICINE, priority 2018, dated 2025).

Usually AUC(0-inf) stands for the area under the concentration-time curve extrapolated to infinity. One may read the AUC(0-t) as the area under the concentration-time curve up to a stated or last time point. Lower therefore signals less exposure. By Cmax is commonly meant the maximum level reached in the sampled fluid or tissue. As usually defined, the Tmax is the time at which the peak concentration occurs.

The structures appear in SMILES notation.

For series [1], the system named is GAL4-DBD full length SRC-1, -2 or -3 fusion. The series is described as follows: GAL4 luciferase reporter assay in cardiac fibroblasts. In kind it is cell-based, mice. The settings on record: 6 μM, SRC-3 vs SRC-1 and SRC-2. The method, then:
Reporter assay. Cardiac fibroblasts were plated in six well plates and transfected with a GAL4 responsive luciferase reporter (pG5-luc) and expression vectors for a GAL4 DNA binding domain (GAL4-DBD) full length SRC-1, -2 or -3 fusion construct (pBIND-SRC-1, pBIND-SRC-2 or pBIND-SRC-3) or pBIND control using Lipofectamine 3000 (Invitrogen; Carlsbad, CA). Twenty-four (24) hours post transfection, cells were treated with 6 μM MCB-613 or dimethyl sulfoxide (DMSO) and incubated overnight. Post treatment cells were lysed and total protein was isolated using the Promega luciferase assay system (Promega Life Sciences; Madison, WI). Protein concentration was measured using a Bradford assay (Bio-Rad Laboratories; Hercules, CA). Relative light units were measured and normalized to total protein concentration.

Series [2] relates to non-cardiomyocyte cells of hearts post-MI. The series is described as follows: Single cell transcriptional profiling of non-cardiomyocytes post-MI. The class given is in vivo, mice. As to the method: Isolation of cardiac cells for single cell transcription profiling. Mice were placed under the surgical plane of anesthesia before cervical dislocation. The hearts were removed and cells were isolated by Langendorff retrograde perfusion of calcium-free pH 7.4 Tyrodes solution (130 mM NaCl, […], 0.5 mM MgCl, 0.33 mM NaH2PO4, 0.25 mm HEPES, 22 mM glucose) with collagenase, 1 mg/mL for 15 minutes. The hearts were then removed from the apparatus, and finely minced in the same Tyrodes buffer with 15 mg/mL bovine serum albumin (BSA) before trituration with a glass pipette. Cardiomyocytes were then pelleted by differential centrifugation, 300 RPM for 3 minutes. The supernatant containing the noncardiomyocyte population of cells was then filtered through a 70 micron filter and pelleted at 750 G, and resuspended in 1.1 mL 2% fetal bovine serum (FBS) in phosphate buffered saline (PBS). 0.1 mL was removed for the “no stain control” for fluorescence-activated cell sorting (FACS). The other 1 mL was incubated with 4 ug/mL Calcein Blue and 10 microM DyeCycle Ruby and incubated at 37° C. for 10 minutes. The cells were then spun down at 600G, and resuspended in 0.5 mL 2% FBS/PBS containing Sytox Green (30 nM). […] The cells were then pelleted and resuspended in 100 uL 0.4% FBS in PBS, counted, and then flowed through the 10×Genomics Chromium system for single cell transcriptomic profiling.
Isolation of cardiac cells. […] Then, 0.1 mL of the mixture was removed for the “no stain control” for fluorescence-activated cell sorting (FACS). […] The cells were then pelleted and resuspended in 100 μL 0.4% FBS in PBS, counted, and passed through the 10× Genomics Chromium system.
Single-cell RNA-sequencing. […] To identify cell clusters and differentially expressed genes, the Cell Ranger results were analyzed with Seurat suite version 3.0.0 implemented in R (version 3.4.3). Cells with <200 or >5,000 unique genes expressed or >25% of reads mapping to mitochondria were removed as quality control measure. […]

Series [3] deals with chorioallantoic membrane (CAM) of chicken eggs. The series is described as follows: CAM angiogenesis assay with drug treated mouse embryonic fibroblasts. In kind it is in vivo. The settings on record: MEFs pre-treated with 0.6 μM for 24 hours. As to the method: Angiogenesis Assay with drug treated mouse embryonic fibroblasts (MEFs). Five to seven day old SPF certified fertilized chicken eggs (white leghorn) were used to access the chorioallantoic membrane (CAM). Mouse embryonic fibroblasts (MEFs) were treated with 0.6 μM MCB-613 for 24 hours. Post treatment, two million MEFs were suspended in 60 μL of PBS containing magnesium and calcium and 40 μL of Matrigel (2M/egg) (Corning Inc.; Corning, NY). The MEFs were then mixed well by pipetting and transferred to the surface of the CAM. The vessel area on the CAM was monitored on a daily basis. Vehicle controls were maintained throughout the experiment. MEFs were allowed to grow on the CAM surface for four days at the end of which an image thresholding method (ImageJ) was used to quantify total vessel area on the CAM. Percent growth in vessel area was then compared across control and treated eggs (MEF treated versus untreated). n=6 eggs per condition.

The nature of series [4]: Pharmacokinetics in CD-1 mice (plasma, HPLC-MS/MS).
Experimental: Each of the three compounds was dissolved in DMSO (20 mg/mL), mixed with 30% hydroxypropyl-β-cyclodextrin at a 1:9 ratio, and administered to the CD-1 mice intraperitoneally (ip) or orally (po) through a gavage. After compound administration, blood samples (3 mice per compound) were collected at nine time points, i.e., at 5 minutes, 0.25 hours, 0.5 hours, 1 hour, 2 hours, 4 hours, 8 hours, 12 hours, and 24 hours, through the tail vein. Plasma was isolated from these blood samples and the compound plasma concentrations were determined by HPLC-MS/MS. Pharmacokinetic parameters were calculated using the program PKSolver, an add-in program for use in analyzing pharmacokinetic and pharmacodynamics data analysis, as described in Zhang et al., Computer Methods and Programs in Biomedicine, 99: 306-314 (2010).
For series [5], the system named is mouse hearts after myocardial infarction. The series is described as follows: Metabolomic profiling of hearts post-MI. The class given is in vivo, mice. As to the method: Metabolomic profiling. Hearts from 4 control and 4 MCB-613-treated mice were isolated 24 hours post-MI, perfused with 10 mM KCl, snap frozen in liquid nitrogen and stored at −80° C. 10 mgs of tissue was analyzed for fatty acids and carnitines normalized to 3 normal liver control samples. Fatty acids were normalized by Internal Standard L-Tryptophan and carnitines normalized by Internal Standard L-Zeatine.

As to `CCC1C/C(=C\c2cccnc2)C(=O)/C(=C/c2cccnc2)C1` (stereo not shown) [MCB-613], the “SRC activation (luciferase, RLU)” value in series [1] is “induced in response to MCB-613 to a greater extent than for SRC-1 and SRC-2”. Further, the endothelial cell growth entry in series [2] (10 weeks post-MI) was “stimulates endothelial cell growth of two distinct endothelial cell populations”. In series [2] (12 weeks post-MI), the “changes in non-cardiomyocyte cell number” value is “macrophage cluster 1 and B lymphocytes decreased in number while epicardial cells, NK/T lymphocytes, fibroblasts, and endothelial cells, including lymphatic cells, were increased in cell number”; the “granulocyte functions (gene set enrichment)” value is “suppresses inflammatory granulocyte functions”. The “angiogenesis (vessel area on CAM)” value in series [3] is on record as “promoted robust angiogenesis”. Besides, in series [4] (intraperitoneal), the AUC(0-inf) turned out to be 129.6 ng·h/mL, the AUC(0-t) worked out at 122.2 ng·h/mL, the Cl is recorded as 6.4 (mg)/(ng/mL)/h and the Cmax worked out at 49.2 ng/mL. For the same compound, in series [4] (intraperitoneal), the “Terminal phase t1/2” value was determined as 390 min, the Tmax was found to be 4.8 min and the t1/2 stood at 51.6 min. Further, in series [4] (oral (gavage)), the total exposure AUC(0-inf) worked out at 24.3 ng·h/mL, the exposure AUC(0-t) was 15.7 ng·h/mL, the Cl is on record as 34 (mg)/(ng/mL)/h and the Cmax is recorded as 5.6 ng/mL. Further, in series [4] (oral (gavage)), the “Terminal phase t1/2” value was found to be 966 min, the Tmax came out at 15 min and the t1/2 came to 56.4 min. Also, in series [5] (mouse hearts 24 hours post-MI), the cardioprotective carnitine metabolites entry is on record as “increases cardioprotective carnitine metabolites” and the “β-oxidation of long-chain fatty acids” value is on record as “increases β-oxidation of long-chain fatty acids”. Moreover, in series [5] (mouse hearts post-MI), the methylglutaryl carnitine entry is listed as “decreases methylglutaryl carnitine”.
